These are literature values, as cited in article PMC13061384, “Rapid behavioral screening in the planarian Dugesia japonica is a biologically relevant system to study neurotoxicity of organophosphorus pesticides mixtures” (Frontiers in Toxicology, 2026).

What is called logP is the decadic logarithm of the partition coefficient of the neutral form, usually between octanol and water.

For the data set the following is noted: ref PubChem.

For the compound `CCOP(=S)(OCC)Oc1ccc([N+](=O)[O-])cc1` [PT, Parathion], the logP is recorded as 3.8.
